Experimental data: patent US20130184273A1, “BICYCLIC PYRIMIDINES” (Bayer Intellectual Property GmbH, priority 2010, published 2013)
pIC50: −log10 of the molar value.

Assays:
[1] = biological target: T1, His-tagged human recombinant kinase full-length Akt1 (Homo sapiens, UniProt P31749); test: Akt1 kinase assay (TR-FRET); type: biochemical; details: 10 μM ATP, 60 min at 22° C., read-out: Akt1, median IC50
T1 construct: His-tagged human recombinant kinase full-length Akt1; His; purchased Invitrogen PV 3599; host or cells: insect cells

[2] = system: KPL-4 breast cancer cell line; test: Tumor cell proliferation assay (CellTiter-Glo); type: cell-based; details: KPL4, 72 h drug exposure
Protocol: Compounds were tested in a cell-based assay that measures the capacity of the compounds to inhibit tumour cell proliferation following a 72 h drug exposure. Cell viability is determined using CellTiter-Glow® (CTG, Promega, cat #G7571/2/3). The CellTiter-Glo® Luminescent Cell Viability Assay is a homogeneous method to determine the number of viable cells in culture. Detection is based on using the luciferase reaction to measure the amount of ATP from viable cells. The amount of ATP in cells correlates with cell viability. Within minutes after a loss of membrane integrity, cells lose the ability to synthesize ATP, and endogenous ATPases destroy any remaining ATP; thus the levels of ATP fall precipitously.
Cells were plated at 3000-5000 cells/well (depending on the cell lines) in 90 μL growth medium on MTPs (Corning; #3603, black plate, clear flat bottom). For each cell line assayed, cells were plated onto a separate plate for determination of […] at t=0 hour and t=72 hour time points. Following overnight incubation at 37° C., chemiluminescence values for the t=0 samples were determined after adding 10 μl medium and 100 μl CTG solution according to manufacture protocol. Plates for the t=72 hour time points were treated with compounds diluted into growth medium at ten times final concentration added in 10 μL to the cell culture plate. Cells were then incubated for 72 hours at 37° C. Chemiluminescence values for the t=72 hour samples were determined. […] Experiments were controlled using a reference compound as standard.

T1 sequence (P31749 whole entry): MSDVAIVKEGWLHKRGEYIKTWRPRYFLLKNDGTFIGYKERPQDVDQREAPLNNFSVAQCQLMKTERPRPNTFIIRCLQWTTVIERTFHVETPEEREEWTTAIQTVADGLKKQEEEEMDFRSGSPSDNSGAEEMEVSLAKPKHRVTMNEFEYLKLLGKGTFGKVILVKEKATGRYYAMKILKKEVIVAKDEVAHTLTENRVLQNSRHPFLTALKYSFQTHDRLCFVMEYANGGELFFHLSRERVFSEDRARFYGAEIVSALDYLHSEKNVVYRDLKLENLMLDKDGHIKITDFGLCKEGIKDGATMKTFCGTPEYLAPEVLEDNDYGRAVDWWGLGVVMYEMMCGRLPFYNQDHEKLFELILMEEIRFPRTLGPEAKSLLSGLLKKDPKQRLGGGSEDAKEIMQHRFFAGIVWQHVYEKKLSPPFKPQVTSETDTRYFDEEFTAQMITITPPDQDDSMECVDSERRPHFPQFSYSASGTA

Compound: Cc1nc2nc(-c3ccc(C4(N)CCC4)cc3)c(-c3ccccc3)cn2n1 [Example 1-0, 1-[4-(2-methyl-6-phenyl-[1,2,4]triazolo[1,5-a]pyrimidin-5-yl)-phenyl]-cyclobutylamine]
- pIC50 [1]: 6.10
- pIC50 [2]: 5.49

Compound: Cc1cn2cc(-c3ccccc3)c(-c3ccc(C4(N)CCC4)cc3)nc2n1 [Example 2-1, 1-[4-(2-Methyl-6-phenyl-imidazo[1,2-a]pyrimidin-7-yl)-phenyl]-cyclobutylamine]
- pIC50 [1]: 6.32
- pIC50 [2]: 5.71

Compound: CS(=O)(=O)c1ccc(-c2cnc3nc(-c4ccc(C5(N)CCC5)cc4)c(-c4ccccc4)cn23)cc1 [Example 4-0, 1-{4-[3-(4-Methansulfonyl-phenyl)-6-phenyl-imidazo[1,2-a]pyrimidin-7-yl]-phenyl}-cyclobutylamine]
- pIC50 [1]: 6.48
- pIC50 [2]: 5.90

Compound: Cn1cc(-c2nc3nc(-c4ccc(C5(N)CCC5)cc4)c(-c4ccccc4)cn3n2)cn1 [Example 5-2, 1-{4-[2-(1-methyl-1H-pyrazol-4-yl)-6-phenyl-[1,2,4]triazolo[1,5-a]pyrimidin-5-yl]-phenyl}-cyclobutylamine]
- pIC50 [1]: 6.42
- pIC50 [2]: 6.03

Compound: NC1(c2ccc(-c3nc4ncc(-c5ccc(F)cc5)n4cc3-c3ccccc3)cc2)CCC1 [Example 6-0, 1-{4-[3-(4-Fluorophenyl)-6-phenyl-imidazo[1,2-a]pyrimidin-7-yl]-phenyl}-cyclobutylamine]
- pIC50 [1]: 5.85
- pIC50 [2]: 5.60

Compound: NC(=O)c1cccc(-c2cnc3nc(-c4ccc(C5(N)CCC5)cc4)c(-c4ccccc4)cn23)c1 [Example 6-2, 3-{7-[4-(1-Amino-cyclobutyl)-phenyl]-6-phenyl-imidazo[1,2-a]pyrimidin-3-yl}-benzamide]
- pIC50 [1]: 6.08
- pIC50 [2]: 5.00

Compound: NC1(c2ccc(-c3nc4ncc(-c5cn[nH]c5)n4cc3-c3ccccc3)cc2)CCC1 [Example 6-3, 1-{4-[6-Phenyl-3-(1H-pyrazol-4-yl)-imidazo[1,2-a]pyrimidin-7-yl]-phenyl}-cyclobutylamine]
- pIC50 [1]: 6.63
- pIC50 [2]: 5.29
